Measured values taken from patent publication US20090270447A1, “2-Aryl-and 2-Heteroarylthiazolyl Compounds, Methods for Their Preparation and Use Thereof” (Wyeth, priority 2008, published 2009).

How the values were obtained:
[1] = system: HCT116 cells (Securin+/+, securin parental cell line HCT116 FB); assay: Growth inhibition of securin parental cells (SRB, 5 days); assay type: cell-based; settings: Homo sapiens, HCT-116, 120 h
Protocol: (§1) IC50 analysis was performed for selected fused heterobicyclic 2-aryl or 2-heteroarylthiazolyl compounds that were tested on HCT116 cells and Securin “knock out” cell lines.
(§2) Cell Culture—HCT116 and securin “knock out” cells. HCT116 and securin “knock out” cells (D8 and F3) were grown in RPMI+5% fetal bovine serum and gentamycin. They were maintained in a humidified 37° C. incubator with 5% CO2. Since the securin “knock out” cells have active chromosomal instability, cells were used at a low passage number of 2-13 passages. At or before passage 13 a new vial of cells was thawed and used for the screen. Cell seeding—HCT116 cells and securin “knock out” cells were trypsinized and suspenended in RPMI+5% FBS at a density of 27,000 cells/mL. HCT116 and securin “knock out” cells were seeded separately in wells of a 96-well plate (Falcon Cat # 35-3872) at a cell density of 4000 cells per well. Cells were seeded in 150 μL of RPMI media containing 5% FBS and gentamycin. Cell seeding was performed under aseptic conditions. Cells were allowed to attach and grow overnight in a humidified 37° C. incubator.
(§3) Compound Dilution and Dispensation. A series of stock solutions, 10 mg/ml of 2-aryl- or 2-heteroarylthiazolyl compounds to be tested, were brought to room temperature. The compounds were diluted 1:50 in RPMI+5% FBS (Highest concentration 200 μg/mL). The compounds were then serially diluted 1:3 across a deep-well titration plate resulting in final concentrations in the plate of 200, 66.7, 22.2, 7.4, 2.4, 0.8 0.27, 0.091, 0.03, 0.01, and 0.0034 μg/mL with one well left without a compound. 50 μL of this dilution series was added to the 150 μL of cells to result in a final concentration of compound in with the cells of 50, 16.6, 5.5, 1.8, 0.6, 0.2, 0.068, 0.023, 0.0076, 0.0025, and 0.00084 μg/mL. The dilution and addition of compounds to the plates is performed using a Multimek 96 Robot (Beckman Coulter).
(§4) Incubation and analysis. After dosing, the cells in the 96 well plates were returned to the humidified 37° C. incubator. The compounds remained on the cells for 5 days. After 5 days, the cells were fixed to the plates with the addition of 50 μL of 50% (vol/vol) Trichloro Acetic Acid ([…]). The cells were fixed at 4° C. for 1 hour. The plates were washed 5 times in distilled water and allowed to dry. The cells were stained with 0.4% sulforhodamine B (Sigma) in 1% acetic acid. The cells were stained for 15 minutes at room temperature. The plates were then washed 3 times in 1% acetic acid. The plates were dried and the dye was solubilized in 10 mM Tris at pH 8.0. The plates were read on the Absorbence 560 setting on a Victor^2 V Model 1420 Multilabel HTS counter (Perkin Elmer).
(§5) Analysis of Results—IC50 data. Absorbence data was read off of the Victor and was converted to a percentage of the control (untreated) values. IC50 values were graphed and the point at which a 50% inhibition of the control level was determined. […] If the model was not able to determine an IC50, the IC50 was assigned to the lowest concentration that gives a 50% or greater decrease in absorbence compared to control levels. If the calculated IC50 value for a cell line exceeds the top concentration for the assay (typically 50 μg/mL), the assay was scored as >50.

[2] = system: securin "knock out" cells D8 (Securin−/−); assay: Growth inhibition of securin knock out cells D8 (SRB, 5 days); assay type: cell-based; settings: for IC50: 120 h, securin knock out D8 cells, 5 days, SRB; for Selectivity Ratio D8: IC50 HCT116 / IC50 securin KO D8
Protocol: as §1, §2, §3, §4, §5
(§6) Selectivity Ratio. The Selectivity Ratio is the ratio of IC50s between the parent cell line and the knock out cell line and is always a positive number and is typically an integer.

[3] = system: securin "knock out" cells F3 (Securin−/−); assay: Growth inhibition of securin knock out cells F3 (SRB, 5 days); assay type: cell-based; settings: for IC50: 120 h, securin knock out F3 cells, 5 days, SRB; for Selectivity Ratio F3: IC50 HCT116 / IC50 securin KO F3
Protocol: as §1, §2, §3, §4, §5, §6

[4] = system: xenografts of a human breast carcinoma cell line (MDA-MB-361); assay: In-vivo activity in tumor xenografts; settings: days 1 through 20
Protocol: Selected fused heterobicyclic 2-aryl- or 2-heteroarylthiazolyl compounds of formula I were tested for their activity in a securin parental cell line (HCT116 FB) and a securin knockout (KO) cell line. […] The in-vivo activity of selected fused heterobicyclic 2-arylarylthiazolyl compounds of formula I was studied in cells growing as xenografts in athymic (nude) mice. The effect of Examples 5-7 and 10 was studied in xenografts of a human breast carcinoma cell line (MDA-MB-361).
In-vivo Activity in Tumor Xenografts. The effectiveness of Examples 5-7 versus Vincristine at controlling tumor growth was studied and the results are summarized in Table 2 and FIG. 1. The 2-arylthiazolyl compounds were formulated 0.5% Methocel™ (methylcellulose) and 0.4% Tween 80™ (polysorbate-80 and oleic acid) and administered daily orally (PO), by gavage or intraperiotenially (IP) by syringe. Tumor mass [(length×width^2)/2] was determined every 7 days. Inhibition of tumor growth was calculated relative to conventional (vehicle treated) controls.

Compound	IC50 [1]	IC50 [2]	Selectivity Ratio D8 [2]	IC50 [3]	Selectivity Ratio F3 [3]	% T/C Day 7 ([4]; 10 mg/kg/dose PO)	Relative Tumor Growth Day 7 ([4]; 10 mg/kg/dose PO)	% T/C Day 14 ([4]; 10 mg/kg/dose PO)	Relative Tumor Growth Day 14 ([4]; 10 mg/kg/dose PO)	% T/C Day 21 ([4]; 10 mg/kg/dose PO)	Relative Tumor Growth Day 21 ([4]; 10 mg/kg/dose PO)	S/T = # of Survivors/# of Treated on Day +21 post tumor staging ([4]; 5 mg/kg/dose PO)	% T/C Day 7 ([4]; 5 mg/kg/dose PO)	Relative Tumor Growth Day 7 ([4]; 5 mg/kg/dose PO)	% T/C Day 14 ([4]; 5 mg/kg/dose PO)	Relative Tumor Growth Day 14 ([4]; 5 mg/kg/dose PO)	% T/C Day 21 ([4]; 5 mg/kg/dose PO)	Relative Tumor Growth Day 21 ([4]; 5 mg/kg/dose PO)
OC1CNCc2nc(-c3ccc(N4CCCC4)cc3)sc21 [Example 5, (7R,7S)-2-(4-pyrrolidin-1-yl-phenyl)-4,5,6,7-tetrahydro[1,3]thiazolo[4,5-c]pyridin-7-ol]	22.8 µM	0.68 µM	34	0.93 µM	25	96%	1.59	78%	3.92	86%	7.86							
O[C@@H]1CNCc2nc(-c3ccc(N4CCCC4)cc3)sc21 [Example 6, (7R)-2-(4-pyrrolidin-1-yl-phenyl)-4,5,6,7-tetrahydro[1,3]thiazolo[4,5-c]pyridin-7-ol]	14.5 µM	0.45 µM	32	0.429 µM	34	106%	1.76	81%	4.06	80%	7.32	9/10	88%	1.46	74%	3.72	71%	6.53
O[C@H]1CNCc2nc(-c3ccc(N4CCCC4)cc3)sc21 [Example 7, (7S)-2-(4-pyrrolidin-1-yl-phenyl)-4,5,6,7-tetrahydro[1,3]thiazolo[4,5-c]pyridin-7-ol]	36.4 µM	21.6 µM	2	9.67 µM	4	93%	1.54	113%	5.64	122%	11.17	10/10	95%	1.57	86%	4.30	81%	7.45
